Measured values from patent US20230278972A1, “SUBSTITUTED HALOALKYL SULFONANILIDE HERBICIDES” (FMC Corporation, priority 2020, published 2023).

How the values were obtained:
Assay type in all cases: in vivo
[1] = test system: Oat, Wild (wild oat, Avena fatua); test: Test A1 preemergence, Oat, Wild
Method in brief: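 Plants grown in pots of loam/sand mix; preemergence = soil-directed spray on seeded pots, postemergence = spray at 1–2 leaves, height 2–10 cm; test chemicals formulated in non-phytotoxic solvent with surfactant.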

kochia (Bassia scoparia) = test: Test A1 postemergence, kochia; details: for Kochia plant response rating: postemergence; for Plant response rating, Kochia: Postemergence
Method in brief: (§1)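 Test compounds were formulated in a non-phytotoxic solvent mixture containing a surfactant. For preemergence, seeds sown in a loam soil–sand blend received a directed soil spray. For postemergence, potted plants in the same soil, 2 to 10 cm tall at the one- to two-leaf stage, were sprayed.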

[2] = test system: barnyardgrass (Echinochloa crus-galli); test: Test B1 flooded paddy test, barnyardgrass; details: 250 g ai/ha, Flood, applied to paddy water, 2-leaf stage, visually evaluated after 10 to 14 days
Source text: A dash (-) response means no test result.

[3] = test system: galium (catchweed bedstraw, Galium aparine); test: Test A1 postemergence, galium; details: for Galium plant response rating: postemergence; for Plant response rating, Galium: Postemergence
Method in brief: as §1

[4] = test system: horseweed (Erigeron canadensis); test: Test A1 postemergence, horseweed; details: for Horseweed plant response rating: postemergence; for Plant response rating, Horseweed: Postemergence
Method in brief: as §1

[5] = test system: blackgrass (Alopecurus myosuroides); test: Test A1 postemergence, blackgrass; details: 0 to 100 scale (0 no effect, 100 complete control); for Blackgrass plant response rating: postemergence; for Plant response rating, Blackgrass: Postemergence
Method in brief: as §1

[6] = 31 g ai/ha, 0 to 100 scale (0 no effect, 100 complete control)
[7] = 125 g ai/ha, 0 to 100 scale, 0 no effect, 100 complete control
[8] = 125 g ai/ha, 0 to 100 scale (0 no effect, 100 complete control), 10 days
[9] = 31 g ai/ha, 0 to 100 scale (0 no effect, 100 complete control), 10 days

Row | Compound | Plant response rating, Oat, Wild [1, 6] | Plant response rating, Oat, Wild [1, 7] | Kochia plant response rating (kochia (Bassia scoparia); [6]) | Plant response rating, Kochia (kochia (Bassia scoparia); [8]) | Plant response rating, Barnyardgrass (0 to 100 scale, 0 is no effect, 100 is complete control) [2] | Galium plant response rating [3, 6] | Plant response rating, Galium [3, 8] | Horseweed plant response rating [4, 6] | Plant response rating, Horseweed [4, 8] | Blackgrass plant response rating ([5]; 31 g ai/ha) | Plant response rating, Blackgrass ([5]; 125 g ai/ha, 10 days) | Plant response rating, Kochia (kochia (Bassia scoparia); 125 g ai/ha, 0 to 100 scale) | Plant response rating, Galium ([3]; 125 g ai/ha, 0 to 100 scale) | Plant response rating, Horseweed ([4]; 125 g ai/ha, 0 to 100 scale) | Plant response rating, Blackgrass ([5]; 31 g ai/ha, 10 days) | Plant response rating, Blackgrass ([5]; 125 g ai/ha) | Plant response rating, Kochia (kochia (Bassia scoparia); [9]) | Plant response rating, Galium [3, 9] | Plant response rating, Horseweed [4, 9] | Plant response rating, Oat, Wild ([1]; 125 g ai/ha, 0 to 100 scale (0 no effect, 100 complete control))
1 | Cc1cc(Cl)c(NS(=O)(=O)C(F)(F)F)cc1N1CCC2(CCCCC2)C1=O [Compound 393] | 10 | 70 | 20 | 60 | 0 | 100 | 100 | 0 | 30 | – | – | – | – | – | – | – | – | – | – | –
2 | Cc1c(NS(=O)(=O)C(F)(F)F)cc(C2=NOC3(CCCC3)C2)c(C)c1C [Compound 380] | 20 | 90 | 30 | 50 | 98 | 50 | 60 | 30 | 80 | 20 | 20 | – | – | – | – | – | – | – | – | –
3 | Cc1c(C2=NOC3(CCCC3)C2)cc(N(COC(=O)C(C)(C)C)S(=O)(=O)C(F)(F)F)c(C)c1C [Compound 382] | 20 | 40 | 0 | 30 | 90 | 0 | 50 | 0 | 50 | 0 | 0 | – | – | – | – | – | – | – | – | –
4 | COC1CCC2(CC1)CCN(c1cc(NS(=O)(=O)C(F)(F)F)c(C)cc1C)C2=O (centres unmarked) [Compound 398] | 20 | 70 | 20 | 70 | 85 | 80 | 90 | 20 | 50 | 0 | 30 | – | – | – | – | – | – | – | – | –
5 | CCOC(=O)N(c1cc(C2=NOC3CCCC23)c(CC)cc1C)S(=O)(=O)C(F)(F)F (centres unmarked) [Compound 379] | 0 | 20 | 0 | – | 95 | 0 | – | 0 | – | – | – | 40 | 40 | 50 | 0 | 30 | – | – | – | –
6 | Cc1cc(C)c(N(S(=O)(=O)C(F)(F)F)S(=O)(=O)C(F)(F)F)cc1N1CCC2(CCC(C(F)(F)F)CC2)C1=O (centres unmarked) [Compound 399] | 20 | 40 | 30 | 70 | 0 | 50 | 90 | 0 | 50 | 40 | 90 | – | – | – | – | – | – | – | – | –
7 | Cc1ccc(C2=NOC3CCCC23)cc1NS(=O)(=O)C(F)(F)F (centres unmarked) [Compound 377] | 0 | 0 | 20 | – | 0 | 0 | – | 30 | – | – | – | 30 | 0 | 80 | 0 | 0 | – | – | – | –
8 | CCOC(=O)N(c1cc(C(=O)N2CCSCC2)c(C)c(C)c1C)S(=O)(=O)C(F)(F)F [Compound 286] | 0 | 0 | – | – | 15 | – | – | – | – | – | – | 50 | 80 | 60 | 0 | 40 | 20 | 50 | 0 | –
9 | Cc1c(C(=O)N2C[C@@H](C)O[C@H](C)C2)cc(N(COC(=O)C(C)(C)C)S(=O)(=O)C(F)(F)F)c(C)c1C (relative stereo) [Compound 373] | 0 | 0 | 0 | – | 95 | 50 | – | – | – | – | – | 10 | 70 | – | 0 | 10 | – | – | – | –
10 | Cc1cc(C)c(N2Cc3cccc(Br)c3C2=O)cc1NS(=O)(=O)Cl [Compound 415] | – | – | 40 | 70 | 85 | 60 | 90 | 60 | – | 0 | 40 | – | – | – | – | – | – | – | – | 80
